Key:
[1] = test system: Leishmania donovani; assay: Antileishmanial activity against Leishmania donovani 9515 amastigote infected in human THP-1 cells assessed as static activity by measuring inhibition of parasite growth incubated for 72 hrs by resazurin dye based assay; format: functional, organism-based; settings: Leishmania donovani, 9515, THP-1, 72 h
[2] = test system: Leishmania major; assay: Antileishmanial activity against Leishmania major IR-173 promastigotes assessed as inhibition of parasite growth incubated for 48 hrs by resazurin dye based assay; format: functional, organism-based; settings: IR-173, 48 h
[3] = test system: Leishmania major; assay: Antileishmanial activity against Leishmania major IR-173 amastigote infected in human THP-1 cells assessed as static activity by measuring inhibition of parasite growth incubated for 72 hrs by resazurin dye based assay; format: functional, organism-based; settings: IR-173, THP-1, 72 h
[4] = Selectivity index, ratio of IC50 for antileishmanial activity against Leishmania major IR-173 promastigotes to IC50 for antileishmanial activity against Leishmania major IR-173 amastigote infected in human THP-1 cells assessed as static activity; format: functional
[5] = test system: Leishmania major; assay: Leishmanicidal activity against Leishmania major IR-173 amastigote infected in human THP-1 cells incubated for 72 hrs by resazurin dye based analysis; format: functional, organism-based; settings: IR-173, THP-1, 72 h
[6] = Selectivity index, ratio of IC50 for cytotoxicity against African green monkey Vero cells to IC50 for leishmanicidal activity against Leishmania major […] amastigote infected in human THP-1 cells; format: toxicity, cell-based; settings: read-out: Ratio IC50
[7] = Selectivity index, ratio of IC50 for antileishmanial activity against Leishmania major IR-173 promastigotes to IC50 for leishmanicidal activity against Leishmania major IR-173 amastigote infected in human THP-1 cells; format: functional
[8] = test system: Leishmania donovani; assay: Antileishmanial activity against Leishmania donovani 9515 promastigotes assessed as inhibition of parasite growth incubated for 48 hrs by resazurin dye based assay; format: functional, organism-based; settings: Leishmania donovani, 9515, 48 h
[9] = test system: Leishmania donovani; assay: Leishmanicidal activity against Leishmania donovani 9515 amastigote infected in human THP-1 cells incubated for 72 hrs by resazurin dye based analysis; format: functional, organism-based; settings: Leishmania donovani, 9515, THP-1, 72 h
[10] = in vitro; settings: African green monkey
[11] = in vitro; settings: monkey, Vero cells
Description: Selectivity index, ratio of IC50 for cytotoxicity against African green monkey Vero cells to IC50 for antileishmanial activity against Leishmania major IR-173 promastigote

[12] = in vitro; settings: monkey, Vero cells; remark: listed apart in the source
Description: Selectivity index, ratio of IC50 for cytotoxicity against African green monkey Vero cells to IC50 for antileishmanial activity against Leishmania major IR-173 amastigote infected in human THP-1 cells assessed as static activity

[13] = in vitro; settings: monkey
Description: Selectivity index, ratio of IC50 for cytotoxicity against African green monkey Vero cells to IC50 for leishmanicidal activity against Leishmania donovani 9515 amastigote infected in human THP-1 cells

[14] = Cytotoxicity against HEK293 cells assessed as inhibition of cell growth incubated for 48 hrs by resazurin dye based assay; format: toxicity; settings: human
[15] = Selectivity index, ratio of IC50 for cytotoxicity against HEK293 cells to IC50 for antileishmanial activity against Leishmania major IR-173 promastigotes; format: toxicity, cell-based; settings: human, read-out: Ratio IC50
[16] = in vitro; settings: human
[17] = Selectivity index, ratio of IC50 for cytotoxicity against African green monkey Vero cells to IC50 for antileishmanial activity against Leishmania donovani 9515 amastigote infected in human THP-1 cells assessed as static activity; format: toxicity, cell-based; settings: read-out: Ratio IC50
[18] = Selectivity index, ratio of IC50 for antileishmanial activity against Leishmania donovani 9515 promastigotes to IC50 for antileishmanial activity against Leishmania donovani 9515 amastigote infected in human THP-1 cells assessed as static activity; format: functional
[19] = Selectivity index, ratio of IC50 for antileishmanial activity against Leishmania donovani 9515 promastigotes to IC50 for leishmanicidal activity against Leishmania donovani 9515 amastigote infected in human THP-1 cells; format: functional
[20] = in vitro; settings: monkey, Vero cells; remark: listed apart in the source
Description: Selectivity index, ratio of IC50 for cytotoxicity against African green monkey Vero cells to IC50 for antileishmanial activity against Leishmania donovani 9515 promastigotes

IC50 at 48 h ([10]; Vero cells)	IC50 at 48 h ([16]; THP-1 cells)	SMILES	IC50 [1]	IC50 [2]	IC50 [3]	Ratio IC50 [4]	IC50 [5]	selectivity ratio [6]	Ratio IC50 [7]	IC50 [8]	IC50 [9]	selectivity ratio [11]	selectivity ratio [12]	selectivity ratio ([13]; Vero cells)	IC50 at 48 h [14]	selectivity ratio [15]	also measured
72.8 µM	70 µM	CCCCCc1cn(CCCCCN2C(=O)CN(/N=C/c3ccc([N+](=O)[O-])o3)C2=O)nn1	> 10 µM	1.07 µM	> 10 µM	–	6.56 µM	11	0.2	> 10 µM	> 10 µM	–	–	–	12 µM	11	–
> 100 µM	> 100 µM	COc1ccc(-c2cn(CCCN3C(=O)CN(/N=C/c4ccc([N+](=O)[O-])o4)C3=O)nn2)cc1	> 10 µM	0.8 µM	> 10 µM	–	9.75 µM	> 10	0.1	> 10 µM	> 10 µM	–	–	–	10.8 µM	13	–
> 100 µM	52.5 µM	CCCCc1cn(CCCN2C(=O)CN(/N=C/c3ccc([N+](=O)[O-])o3)C2=O)nn1	1.01 µM	0.45 µM	3.34 µM	0.2	> 10 µM	–	–	> 10 µM	> 10 µM	–	30	–	43.9 µM	98	selectivity ratio [17]: 99
31.6 µM	> 100 µM	CCCCc1cn(CCCCCN2C(=O)CN(/N=C/c3ccc([N+](=O)[O-])o3)C2=O)nn1	> 10 µM	0.44 µM	> 10 µM	–	5.69 µM	6	0.1	> 10 µM	1.68 µM	–	–	19	> 100 µM	> 227	–

Continued, compound first:

SMILES	IC50 at 48 h ([10]; Vero cells)	IC50 at 48 h ([16]; THP-1 cells)	IC50 [1]	IC50 [2]	IC50 [3]	Ratio IC50 [4]	IC50 [5]	selectivity ratio [6]	Ratio IC50 [7]	IC50 [8]	IC50 [9]	selectivity ratio [11]	selectivity ratio [12]	selectivity ratio ([13]; Vero cells)	IC50 at 48 h [14]	selectivity ratio [15]	also measured
O=Cc1ccc([N+](=O)[O-])o1	23.2 µM	–	8.56 µM	7.28 µM	8.35 µM	0.87	5.6 µM	4	1.3	> 10 µM	2.68 µM	3	3	9	–	–	–
O=C1OCCN1/N=C/c1ccc([N+](=O)[O-])o1 [FURAZOLIDONE]	–	> 100 µM	4.94 µM	–	5.75 µM	0.1	> 10 µM	–	–	–	1.68 µM	270	17	60	–	–	Ratio IC50 [18]: 0.1; Ratio IC50 [19]: 0.2; IC50 at 48 h ([10]; vero): > 100 µM; selectivity ratio [20]: 357
O=C1CN(/N=C/c2ccc([N+](=O)[O-])o2)C(=O)N1 [NITROFURANTOIN]	–	–	> 10 µM	> 10 µM	> 10 µM	–	> 10 µM	–	–	> 10 µM	3.57 µM	–	–	–	–	–	IC50 at 48 h ([10]; vero): > 100 µM; IC50 at 48 h ([16]; thp-1): > 100 µM; selectivity ratio [13]: 28
NC(=O)N/N=C/c1ccc([N+](=O)[O-])o1 [NITROFURAZONE]	> 100 µM	> 100 µM	4.11 µM	–	2.8 µM	0.12	5.6 µM	–	0.1	–	2.7 µM	54	36	37	–	–	Ratio IC50 [18]: 0.2; Ratio IC50 [19]: 0.3; selectivity ratio [20]: 54

Source: ChEMBL document CHEMBL5352474, “Synthesis and in vitro antileishmanial activity of alkylene-linked nitrofurantoin-triazole hybrids” (Eur J Med Chem, 2023)
